According to publication PMC5464768, “ER retention is imposed by COPII protein sorting and attenuated by 4-phenylbutyrate” (eLife, 2017):
Read-outs that look alike come from different tables or passages of the source.

What was measured:
[1] = system: CHO cells expressing G544V-mutant LDL receptor; assay: Restoration of trafficking of mutant LDL receptor in cells (immunoblot for 160 kDa mature glycosylated form); type: cell-based; conditions: for EC50: ± standard error of fit
Protocol: (§1) T-Rex-CHO-K1 cloned cell lines expressing wild-type and mutant LDL receptor were cultured as described ([Sørensen et al., 2006]; [Tveten et al., 2007]), and according to the manufacturer’s protocols (Thermo Fisher Scientific; CHO cell Lot No. 1610593). The expression in CHO cells of G544V-mutant or wild-type LDL receptor protein was induced with 1 µg/mL tetracycline for 24 hr prior to experiments with 4-PBA or 4-PBA analogs ([Tveten et al., 2007]). To compare pharmacological potency of 4-PBA analogs, cells were incubated with the compounds for 2 hr at 37°C in 12-well 22 mm plates (Corning Costar #3513). For experiments concerning the extracellular secretion of GRP94 (Figure 5), the incubations with 4-PBA were extended to 24 hr. Cells were broken in lysis buffer (1% (v/v) Triton X-100, 150 mM NaCl, 10 mM EDTA, 50 mM Tris-HCl pH 7.5) and cleared by centrifugation (15,000 g for 15 min). Cellular protein concentration was measured using ‘Protein Assay Kit II’ (Bio-Rad) with bovine serum albumin as standard. Lysates were added to Laemmli sample buffer (New England BioLabs) containing 130 mM dithiothreitol and heated for 15 min at 55°C. Cell medium (containing secreted proteins) was added to Laemmli sample buffer containing 5% β-mercaptoethanol and boiled for 5 min. Samples were run on 4–15% Tris/HCl Criterion gels (Bio-Rad) followed by immunoblotting.
Proteins were electrotransferred from SDS-PAGE gels onto Immun-Blot low fluorescence PVDF membrane (Bio-Rad) and blocked using TBST (5% BioRad Blocker in 25 mM Tris-HCl pH 7.4, 150 mM NaCl, 0.05% (v/v) Tween 20). Membranes were incubated at 4°C overnight with primary antibodies in TBST followed by incubation with horseradish peroxidase-conjugated secondary antibodies. Chemiluminescence signals were generated by incubation with ECL Prime Western Blotting detection reagent (GE Healthcare #RPN2236). […] Chemiluminescence signals were detected using a ChemiDoc MP Imaging System and acquired with Image Lab 5.0 software (Bio-Rad). Quantification of protein band intensities was performed using Image Gauge software Version 4.1 (Fujifilm), including background correction of the raw image data.
Chemiluminescence signals from western blots for the glycosylated (160 kDa) form of G544V-mutant LDL receptor were quantified as a percentage of total LDL receptor protein (glycosylated + unglycosylated bands). Data at high concentrations of 4-PBA analogs, which show inhibition of LDL receptor trafficking, were omitted. Data from individual experiments were normalized (to obtain maximal response = 100%), so that data from replicate experiments (n = 4–5) could be averaged. Logistic fitting to the dose-response data was carried out with program Ultrafit (Elsevier Biosoft).

[2] = biological target: T1, human Sec24a (Homo sapiens, UniProt O95486); assay: Fluorescence polarization competition binding assay (displacement of 5-Fam-[…]); conditions: fluorescence polarization at 22°C; 5 µM probe, 22 µM Sec24a; ± standard error of fit; read-out: IC50, displacement of fluorescent probe 5-Fam-[…] from Sec24a
T1 construct: His6 (TEV-cleavable) (N, cleaved yes); made in house; host or cells: High Five insect cells (baculovirus)
T1 sequence (O95486 341-1093): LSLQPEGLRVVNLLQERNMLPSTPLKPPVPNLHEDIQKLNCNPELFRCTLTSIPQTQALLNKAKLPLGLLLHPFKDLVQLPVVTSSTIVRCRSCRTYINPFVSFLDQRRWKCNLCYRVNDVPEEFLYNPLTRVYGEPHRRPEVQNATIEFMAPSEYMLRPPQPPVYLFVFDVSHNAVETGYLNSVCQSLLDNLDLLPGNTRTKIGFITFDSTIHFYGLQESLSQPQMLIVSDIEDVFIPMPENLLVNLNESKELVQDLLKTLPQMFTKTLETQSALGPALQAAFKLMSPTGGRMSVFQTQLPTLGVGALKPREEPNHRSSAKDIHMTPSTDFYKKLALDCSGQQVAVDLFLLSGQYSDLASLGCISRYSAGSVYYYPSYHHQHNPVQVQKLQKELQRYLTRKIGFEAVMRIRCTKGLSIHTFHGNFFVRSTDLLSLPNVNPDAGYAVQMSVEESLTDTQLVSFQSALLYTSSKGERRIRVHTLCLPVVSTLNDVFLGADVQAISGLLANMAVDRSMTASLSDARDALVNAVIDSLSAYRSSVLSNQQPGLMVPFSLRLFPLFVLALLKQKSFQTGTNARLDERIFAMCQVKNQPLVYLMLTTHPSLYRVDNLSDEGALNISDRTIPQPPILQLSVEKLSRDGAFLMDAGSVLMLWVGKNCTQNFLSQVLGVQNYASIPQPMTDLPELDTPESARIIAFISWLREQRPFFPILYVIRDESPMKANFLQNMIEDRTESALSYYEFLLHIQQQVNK

[3] = system: CHO cells (stressed, expressing G544V-mutant LDL receptor, and unstressed wild-type); assay: Extracellular secretion of GRP94 from CHO cells; type: cell-based; conditions: 24 hr at 37°C
Protocol: as §1

[4] = biological target: T2, B site of Sec24a (Homo sapiens, UniProt O95486); assay: X-ray crystallography of ligand-soaked Sec23a/Sec24a•Sec22b crystals; type: binding; conditions: crystals soaked with 4-PBA at 1, 15 and 50 mM or with 5 mM ΦC signal peptide
T2 construct: His6 (TEV-cleavable) (N, cleaved yes); made in house; host or cells: High Five insect cells (Sec23a/Sec24a); E. coli (Sec22b)
Protocol: The Sec23a/Sec24a•Sec22b complex was crystallized as described previously ([Mancias and Goldberg, 2007]) from a solution comprising 10% (w/v) PEG 4000, 500 mM Na acetate and 50 mM Tris-HCl pH 7.9. Since acetate ions compete with ligand binding at the B site, crystals were transferred into a soaking buffer of 10% (w/v) PEG 4000, 600 mM NaCl, 50 mM Tris-HCl buffer, pH 7.9. (Two acetate ions are observed bound to B-site arginine residues in electron density maps calculated from Sec23a/Sec24a•Sec22b crystallographic data, PDB 2NUT). To this was added 4-PBA (0–50 mM) or 5 mM ΦC signal peptide, and ligand soaking proceeded for five hours at 22°C. Crystals were then transferred to an equivalent ligand-containing buffer with additional 24% ethylene glycol cryo-protectant, and were flash frozen in liquid nitrogen. Crystals treated in this manner diffracted synchrotron X-rays to 2.5–2.8 Å resolution.
X-ray diffraction data were collected at 0.979 Å wavelength on beamline ID-24C or ID-24E of the Advanced Photon Source, Argonne National Laboratory. Data were processed with the program HKL2000 ([Otwinowski and Minor, 1997]; Tables 1 and 2). Structure refinement was carried out using Phenix ([Adams et al., 2010]), initially by rigid-body improvement, followed by positional refinement, based on the published coordinates of Sec23a/Sec24a•Sec22b (PDB 2NUT; [Mancias and Goldberg, 2007]). […]

[5] = biological target: T3, COPII coat (Sec23a/24d) packaging of p24 proteins and ERGIC-53 (Homo sapiens, UniProt O94855); assay: In vitro COPII vesicle budding assay with permeabilized CHO (T-Rex-CHO-K1) cells; type: biochemical, H. sapiens; conditions: 10 mM 4-PBA; corrected for budding yield
T3 construct: Sec23a/Sec24d (full-length protein) for COPII budding assays; His6 (TEV-cleavable) (N); made in house; host or cells: High Five insect cells (Sec23a/24d, Sec13a/31a); E. coli BL21(DE3) (Sar1a); added to digitonin-permeabilized T-Rex-CHO-K1 cells
Protocol: In vitro COPII budding reactions used permeabilized cells prepared from the T-Rex-CHO-K1 parent line and from the clone that expresses mutant LDL receptor. Permeabilization was carried out as described ([Mancias and Goldberg, 2008]) with modifications. Two culture dishes (150 mm) of cells were prepared with cells at no greater than 60% confluence. Cells were washed with 20 ml PBS at 37°C and then trypsinized with 2 ml of Trypsin-EDTA (0.05%, Gibco) for 1 min at 37°C; 100 µl of Soybean Trypsin Inhibitor (2 mg/ml; Sigma) was added to each culture plate. To this was added 5.5 ml ice-cold KHM buffer (110 mM KOAc, 20 mM Hepes pH 7.2, 2 mM magnesium acetate) per plate, and cells were transferred to a 15 ml Falcon tube and pelleted gently (250 g for 3 min at 4°C). The supernatant was aspirated and the cells resuspended in 6 ml ice-cold KHM buffer. To permeabilize the cells, 6 µl digitonin stock solution (40 mg/ml in dimethyl sulfoxide) was added, cells were mixed by inversion and incubated on ice for 5 min. To terminate permeabilization, cells were diluted to 14 ml with KHM buffer and immediately pelleted at 250 g for 3 min at 4°C. […] The protein concentration was measured using protein assay kit (Bio-Rad) with BSA as standard; routinely, the measurement is in the range 4–5 mg/ml. […]

[6] = Cricetulus griseus, CHO, 2 h, read-out: EC50, acquisition of mutant LDL receptor glycosylation (restoration of trafficking), CHO cells expressing G544V-mutant LDL receptor, 2 hr at 37°C

T2 sequence (Q15436 whole entry partner, one chain of several): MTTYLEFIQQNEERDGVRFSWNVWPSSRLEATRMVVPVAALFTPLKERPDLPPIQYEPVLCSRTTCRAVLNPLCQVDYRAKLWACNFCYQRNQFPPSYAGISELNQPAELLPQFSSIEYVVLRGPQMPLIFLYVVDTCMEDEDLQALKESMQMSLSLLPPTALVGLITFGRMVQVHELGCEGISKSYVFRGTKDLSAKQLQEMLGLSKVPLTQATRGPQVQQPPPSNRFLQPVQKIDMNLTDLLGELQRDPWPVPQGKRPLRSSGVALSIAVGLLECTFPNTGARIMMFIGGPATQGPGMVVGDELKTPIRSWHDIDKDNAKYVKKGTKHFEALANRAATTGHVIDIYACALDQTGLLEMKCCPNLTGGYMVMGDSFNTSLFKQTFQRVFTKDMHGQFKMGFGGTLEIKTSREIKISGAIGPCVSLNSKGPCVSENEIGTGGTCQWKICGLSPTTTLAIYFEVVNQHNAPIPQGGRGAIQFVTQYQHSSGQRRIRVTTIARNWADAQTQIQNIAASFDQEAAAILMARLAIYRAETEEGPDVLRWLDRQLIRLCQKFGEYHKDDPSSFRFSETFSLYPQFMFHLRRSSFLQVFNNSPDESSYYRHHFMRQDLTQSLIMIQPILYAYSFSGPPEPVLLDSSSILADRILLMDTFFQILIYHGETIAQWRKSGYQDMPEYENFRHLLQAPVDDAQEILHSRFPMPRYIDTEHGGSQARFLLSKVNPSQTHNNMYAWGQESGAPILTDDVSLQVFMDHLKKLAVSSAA
T2 sequence (O75396 1-195 partner limits assumed, one chain of several): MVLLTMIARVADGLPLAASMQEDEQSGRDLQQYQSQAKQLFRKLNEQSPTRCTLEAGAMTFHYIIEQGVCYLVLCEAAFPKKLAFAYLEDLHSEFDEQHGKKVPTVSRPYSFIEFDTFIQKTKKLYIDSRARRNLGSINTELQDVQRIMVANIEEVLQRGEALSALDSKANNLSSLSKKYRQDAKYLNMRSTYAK
T3 sequence (O94855 whole entry): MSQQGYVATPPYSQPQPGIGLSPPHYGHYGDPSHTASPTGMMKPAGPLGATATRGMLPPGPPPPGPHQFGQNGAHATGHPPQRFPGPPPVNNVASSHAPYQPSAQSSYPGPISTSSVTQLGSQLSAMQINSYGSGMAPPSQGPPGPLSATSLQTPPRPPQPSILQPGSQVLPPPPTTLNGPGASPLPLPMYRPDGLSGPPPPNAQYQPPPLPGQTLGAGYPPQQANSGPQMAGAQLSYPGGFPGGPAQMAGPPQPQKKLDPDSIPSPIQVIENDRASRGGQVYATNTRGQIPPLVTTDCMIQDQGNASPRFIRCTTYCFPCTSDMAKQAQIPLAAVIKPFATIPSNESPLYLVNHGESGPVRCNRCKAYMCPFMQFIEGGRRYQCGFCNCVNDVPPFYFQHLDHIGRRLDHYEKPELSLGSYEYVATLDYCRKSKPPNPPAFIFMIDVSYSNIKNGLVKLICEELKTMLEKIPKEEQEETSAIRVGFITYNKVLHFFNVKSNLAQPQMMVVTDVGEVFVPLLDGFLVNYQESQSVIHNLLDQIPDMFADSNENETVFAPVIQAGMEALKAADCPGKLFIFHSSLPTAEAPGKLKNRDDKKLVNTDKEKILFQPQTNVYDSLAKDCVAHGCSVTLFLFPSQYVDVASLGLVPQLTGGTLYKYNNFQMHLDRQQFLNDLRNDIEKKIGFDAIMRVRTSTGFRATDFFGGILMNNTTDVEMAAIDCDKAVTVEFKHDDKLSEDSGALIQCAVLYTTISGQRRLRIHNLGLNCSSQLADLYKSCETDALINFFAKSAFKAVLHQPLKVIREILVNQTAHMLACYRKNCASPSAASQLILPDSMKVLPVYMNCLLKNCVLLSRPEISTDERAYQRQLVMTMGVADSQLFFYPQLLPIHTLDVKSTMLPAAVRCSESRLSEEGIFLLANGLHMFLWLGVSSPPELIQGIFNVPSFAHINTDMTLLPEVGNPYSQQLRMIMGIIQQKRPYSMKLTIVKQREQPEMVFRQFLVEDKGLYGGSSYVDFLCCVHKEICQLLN
T3 sequence (Q15436 whole entry partner): as the sequence (Q15436 whole entry partner, one chain of several) above

SMILES	EC50 [1, 6] [mM]	IC50 [2] [mM]	cell lysis (GAPDH marker) and loss of GRP94 secretion ([3]; 45 mM 4-PBA)	concentration giving maximal secretion of GRP94 ([3]; stressed and unstressed cells) [mM]	binding to Sec24a in crystals (difference Fourier maps / residual electron density) [4]	fraction of mutant LDL receptor with restored trafficking ([1]; 10 mM 4-PBA applied to cells) [%]	EC50 ([1]; read-out: EC50, acquisition of mutant LDL receptor glycosylation (restoration of trafficking), CHO cells expressing G544V-mutant LDL receptor, 2 hr at 37°C) [mM]	reduction in the packaging rate of p24 proteins and ERGIC-53 into COPII vesicles [5] [%]
O=C(O)CCc1ccccc1 [3-PPA, 3-phenylpropionate]	7.48 ± 0.68	4.11 ± 0.34						
O=C(O)CCCc1ccccc1 [4-PBA, 4-phenylbutyrate]	6.4	3.66 ± 0.22	cell lysis is detected	20	clear evidence for binding	≤ 25	6.37 ± 0.5	50
O=C(O)CCCCc1ccccc1 [5-PVA, 5-phenylvalerate]	3.36 ± 0.42	0.99 ± 0.08						
O=C(O)CCCc1ccc(O)cc1 [Hydroxy-PBA, 4-(4-hydroxyphenyl)butyrate]	10.6 ± 0.4	5.04 ± 0.69						
O=C(O)CCc1ccc(O)cc1 [Hydroxy-PPA, 3-(4-hydroxyphenyl)propionate]	21.7 ± 1.03	9.22 ± 0.94						
COc1ccc(CCCC(=O)O)cc1 [Methoxy-PBA, 4-(4-methoxyphenyl)butyrate]	8.63 ± 0.98	4.14 ± 0.7						
Cc1ccc(CCCC(=O)O)cc1 [Tolyl-BA, 4-(4-tolyl)butyrate]	4.89 ± 0.24	1.7 ± 0.16						
